Measurements taken from ChEMBL document CHEMBL1157675, “Anti-inflammatory diterpenes from the seeds of Vitex negundo” (Bioorg Med Chem, 2010).
pIC50: −log10 of the molar value. Activity calls are given as the source filed them. The rule behind the calls is not given here.

Experiments:
[1] = system: RAW264.7; assay: Antiinflammatory activity in mouse RAW264.7 cells assessed as inhibition of LPS-induced NO production after 24 hrs by Griess reagent method; assay type: functional, cell-based; details: RAW264.7, 24 h
[2] = system: RAW264.7; assay: Cytotoxicity against mouse RAW264.7 cells up to 50 uM after 24 hrs by MTT assay; assay type: cell-based; details: raw264.7, 24 h
[3] = system: RAW264.7; assay: Antiinflammatory activity in LPS-stimulated mouse RAW264.7 cells assessed as reduction of COX2 protein expression at 5 uM after 24 hrs by Western blot analysis relative to control; assay type: functional; details: for response, % of control at 5 µM: RAW264.7, 24 h, values are per cent of control
[4] = system: RAW264.7; assay: Antiinflammatory activity in LPS-stimulated mouse RAW264.7 cells assessed as reduction of iNOS protein expression at 5 uM after 24 hrs by Western blot analysis relative to control; assay type: functional; details: RAW264.7, 24 h, values are per cent of control
[5] = system: RAW264.7; assay: Antiinflammatory activity in LPS-stimulated mouse RAW264.7 cells assessed as reduction of COX2 protein expression at 50 uM after 24 hrs by Western blot analysis relative to control; assay type: functional; details: RAW264.7, 24 h
[6] = system: RAW264.7; assay: Antiinflammatory activity in LPS-stimulated mouse RAW264.7 cells assessed as reduction of iNOS protein expression at 50 uM after 24 hrs by Western blot analysis relative to control; assay type: functional; details: RAW264.7, 24 h

pIC50 [1] | SMILES | Activity [2] | inhibition [3] | response, % of control at 5 µM [4] | response, % of control at 5 µM [3] | inhibition at 50 µM [5] | inhibition at 50 µM [6]
4.63 | CC(=O)O[C@H]1CC[C@@]2(C)[C@@H](CC[C@@H](C)[C@]23CC/C(=C\C(=O)O)O3)C1(C)C (relative stereo) [NEGUNDOIN B] | Non-toxic | – | – | – | – | –
5.36 | CO[C@H]1OC(=O)C[C@@]12CC[C@@]1(O2)[C@H](C)CC[C@H]2C(C)(C)[C@@H](OC(C)=O)CC[C@@]21C (relative stereo) [NEGUNDOIN D] | Non-toxic | inactive | 62% | – | – | –
6.15 | C=C[C@@]1(C)CCC2C(=C[C@@H](O)[C@H]3C(C)(C)CCC[C@]23CO)C1=O (relative stereo) [NEGUNDOIN G] | Non-toxic | – | – | – | – | –
6.92 | CC(=O)O[C@H]1CC[C@@]2(C)[C@@H](CC[C@@H](C)[C@]23CC/C(=C\C=O)O3)C1(C)C (relative stereo) [NEGUNDOIN C] | Non-toxic | – | 0.4% | 2.06% | – | –
4.34 | COc1ccc2c(c1)c(CC(=O)O)c(C)n2C(=O)c1ccc(Cl)cc1 [INDOMETHACIN] | – | – | – | – | 59.9% | 86.5%
6.64 | CC(=O)O[C@H]1CC[C@@]2(C)[C@@H](CC[C@@H](C)[C@]23CC[C@@]2(CCO[C@H]2O)O3)C1(C)C (relative stereo) [NEGUNDOIN E] | Non-toxic | – | 41% | 26.4% | – | –
5.94 | CC(C)c1ccc(O)c(CC[C@@H]2[C@@H](C)CC[C@H](O)C2(C)C)c1 (relative stereo) [NEGUNDOIN F] | Non-toxic | – | 58.2% | 59.7% | – | –
5.01 | COC(=O)/C=C1\CC[C@@]2(O1)[C@H](C)CC[C@H]1C(C)(C)[C@@H](OC(C)=O)CC[C@@]12C (relative stereo) [NEGUNDOIN A] | Non-toxic | inactive | 68.2% | – | – | –
